System: rats with subarachnoid hemorrhage (SAH)
Test: Rat SAH model: immunohistochemistry of inferomedial cortex and posterior cerebral artery
Format: in vivo
Settings: 24 hr after SAH
Description: Model of SAH. All surgical procedures were approved by the Institutional Animal Care and Use Committee of the University of Maryland. […] Fasted male Wistar rats (225-275 gm; Harlan, Indianapolis, Ind.) were anesthetized (ketamine, 60 mg/kg and xylazine, 7.5 mg/kg, intraperitoneally) and allowed to ventilate air spontaneously. Temperature was maintained at 37° C. using a heating pad regulated by a rectal temperature sensor (Harvard Apparatus, Holliston, M A). The laser Doppler flowmetry (LDF) probe (MoorLab, Moore Instruments, Sussex, UK) was affixed to the skull. The right carotid sheath was exposed through a ventral midline incision, the common, external and internal carotid arteries (CCA, ECA, ICA) were dissected, and the pterygopalatine artery was ligated. Typical blood gases (i-STAT, Heska Corp, Fort Collins, Colo.), sampled from the CCA before injury, were pO2>90 mm Hg, pCO2<47 mm Hg, and glucose 150-200 mg/dl.
The model of SAH involved a single endovascular puncture of the ICA using a 4-0 filament sharpened at its tip, followed by reperfusion of the ICA (Schwartz et al. 2000). With temporary clips on the CCA and ICA, the ECA was divided proximal to the ligature, the 4-0 nylon filament was introduced through the stump of the ECA into the ICA, arterial puncture was produced at ˜19 mm under LDF monitoring, the filament was withdrawn, the ECA stump was ligated and flow was restored to the CCA/ICA. Unlike the widely used method in which a 3-0 filament is used to produce severe hemorrhage associated with high mortality, the method used here utilizing a 4-0 filament produced mild-tomoderate SAH associated with low mortality. We monitored rCBF using LDF to confirm the sharp drop after puncture and filament withdrawal, and to assure the full recovery in rCBF within 10-15 min of restoration of flow in the ICA, making ischemic injury less likely than in versions of the model in which the CCA is ligated.
Controls received the same volume of vehicle in the same way. […] The osmotic mini-pumps delivered 0.5 μl/hr, yielding infusion doses of 200 ng/hr.
Rats were euthanized 24 hr after induction of SAH. In some cases, fresh tissues were collected for immunoblot. In other cases, animals underwent perfusion fixation for immunohistochemistry or in situ hybridization.
Immunohistochemistry. Cryosections (10 μm) were post-fixed with 4% formaldehyde and immunolabeled using standard techniques. After permeabilizing (0.3% Triton X-100 for 10 min), sections were blocked (2% donkey serum for 1 hr; Sigma D-9663), then incubated with primary antibody directed against: SUR1 (1:200; SC-5789; Santa Cruz Biotechnology); NeuN (1:100; MAB377; Chemicon, CA); GFAP (1:500; CY3 conjugated; C-9205; Sigma, St. Louis, Mo.); vonWillebrand factor (1:200; F3520, Sigma); TNFα (1:100; Santa Cruz); p65 (1:100; Santa Cruz); FITC-conjugated IgG (1:200; Santa Cruz); ZO-1 (1:100; Zymed Laboratories). Fluorescent-labeled, species appropriate secondary antibodies (Molecular Probes, OR) were used for visualization. Omission of primary antibody and competition with antigenic peptides, when available, were used as negative controls. Fluorescent signals were visualized using epifluorescence microscopy (Nikon Eclipse E1000).
For quantitative immunohistochemistry, all sections were immunolabeled as a single batch, as previously described (Gerzanich et al. 2003). All images were collected using uniform parameters of magnification and exposure. Segmentation analysis was performed by computing a histogram of the pixel intensity for equal regions of interest (ROI) using IP Lab software, with the ROI confined to the 400 μm of parenchymal tissue dorsal to the pia of the inferomedial cortex ipsilateral to the SAH. For IgG, the overall pixel intensity of the ROI was determined and the background was subtracted. […]

Question: With `COc1ccc(Cl)cc1C(=O)NCCc1ccc(S(=O)(=O)NC(=O)NC2CCCCC2)cc1` [glibenclamide] as the molecule, how does the “protein (IgG) endocytosis by neurons” value read?
Answer: essentially absent

Question: And the “caspase-3 activation in the PCA” value (5 rats)?
Answer: absent in ⅘ rats and was minimal in the fifth

Question: What about the “ZO-1 localization in PCA endothelium” value (vs vehicle) of the same molecule?
Answer: significantly reduced cytoplasmic localization and restored intercellular localization

Question: And the “caspase-3 activation in parenchymal tissues” value (vs vehicle)?
Answer: significantly reduced

Question: What about the “local inflammation (TNFα, p65 immunolabeling)” value (vs vehicle) of the same molecule?
Answer: significantly reduced

Question: What about the “reactive astrocytosis (GFAP immunolabeling)” value (vs vehicle) of the same molecule?
Answer: significantly reduced

From US20110263478A1, “SUR1 INHIBITORS FOR THERAPY” (priority 2008, published 2011)
